Data from patent US20240158446A1, “CYCLIC COMPOUND HAVING SELECTIVE INHIBITORY ACTION ON KRAS OVER HRAS AND NRAS” (CHUGAI SEIYAKU KABUSHIKI KAISHA, priority 2021, published 2024).

Legend:
[1] = target: GDP-bound NRAS wild-type protein (Homo sapiens, UniProt P01111); experiment: Binding to NRAS by surface plasmon resonance (SPR), Single Cycle Kinetics; conditions: ratio of KD for GDP-bound NRAS wild-type protein to KD for KRAS, SPR
[2] = target: GDP-bound HRAS wild-type protein (Homo sapiens, UniProt P01112); experiment: Binding to HRAS by surface plasmon resonance (SPR), Single Cycle Kinetics; conditions: ratio of KD for GDP-bound HRAS wild-type protein to KD for KRAS, SPR
Chain of GDP-bound HRAS wild-type protein (P01112 whole entry): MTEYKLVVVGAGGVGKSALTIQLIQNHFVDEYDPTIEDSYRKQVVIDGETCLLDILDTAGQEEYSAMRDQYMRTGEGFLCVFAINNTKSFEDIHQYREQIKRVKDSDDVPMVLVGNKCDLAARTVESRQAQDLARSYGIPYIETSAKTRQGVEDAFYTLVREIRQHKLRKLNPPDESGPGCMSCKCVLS

[3] = test system: human lung cancer strain NCI-H441; experiment: cells; conditions: NCI-H441, 96 h, read-out: NCI-H441 IC50 (nM), NCI-H441 cell proliferation, 4 days, CellTiter-Glo;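 further: cell proliferation inhibition after four days measured by CellTiter-Glo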

Chain of GDP-bound NRAS wild-type protein (P01111 whole entry): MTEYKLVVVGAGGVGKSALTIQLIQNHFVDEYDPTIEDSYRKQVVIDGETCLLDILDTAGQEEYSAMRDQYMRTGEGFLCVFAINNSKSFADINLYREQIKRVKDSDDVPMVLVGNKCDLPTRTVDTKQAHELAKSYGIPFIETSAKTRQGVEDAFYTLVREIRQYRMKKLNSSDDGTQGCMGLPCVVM

SMILES | NRAS/KRAS (KD ratio) [1] | HRAS/KRAS (KD ratio) [2] | IC50 [3] [nM]
CCCOC[C@H]1C(=O)N[C@@H]([C@@H](C)CC)C(=O)N(C)CC(=O)N(C)[C@H]2C/C=C\CCN(C2=O)[C@@H](Cc2ccc(C(F)(F)F)cc2)C(=O)N(C)CC(=O)N[C@@H](CCc2cc(F)c(C(F)(F)F)c(F)c2)C(=O)N2C[C@@H](C)C[C@H]2C(=O)NC2(CCC2)C(=O)N(C)[C@@H](C2CCCC2)C(=O)N(C)[C@H](C(=O)N(C)CCC)CC(=O)N1C [PP2008] | A (a compound having 10 or more and less than 20 is denoted as A) | A (a compound having 10 or more and less than 20 is denoted as A) | 15.2
CCC[C@H]1C(=O)N[C@@H]([C@@H](C)CC)C(=O)N(C)CC(=O)N(C)[C@H]2C/C=C\CCN(C2=O)[C@@H](Cc2ccc(C)cc2)C(=O)N(C)CC(=O)N[C@@H](CCc2ccc(C(F)(F)F)c(OC)c2)C(=O)N2C[C@H](C)C[C@H]2C(=O)NC2(CC(C)(C)C2)C(=O)N(C)[C@@H](C2CCCC2)C(=O)N(C)[C@H](C(=O)N(C)C)CC(=O)N1C [PP1890] | A (a compound having 10 or more and less than 20 is denoted as A) | B (a compound having 3 or more and less than 10 is denoted as B) | 3.6
CC[C@H](C)[C@@H]1NC(=O)[C@H](CC2CCC2)N(C)C(=O)C[C@@H](C(=O)N(C)C)N(C)C(=O)[C@H](C2CCCC2)N(C)C(=O)C2(CCC2)N(C)C(=O)[C@@H]2C[C@@H](C)CN2C(=O)[C@H](CCc2cc(F)c(C(F)(F)F)c(F)c2)NC(=O)CN(C)C(=O)[C@H](Cc2ccc(C)cc2)N2CC/C=C\C[C@@H](C2=O)N(C)C(=O)CN(C)C1=O [PP1803] | A (a compound having 10 or more and less than 20 is denoted as A) | B (a compound having 3 or more and less than 10 is denoted as B) | 7.6
CCCOC[C@H]1C(=O)N[C@@H]([C@@H](C)CC)C(=O)N(C)CC(=O)N(C)[C@H]2C/C=C\CCN(C2=O)[C@@H](Cc2ccc(C(F)(F)F)cc2)C(=O)N(C)CC(=O)N[C@@H](CCc2ccc(C(F)(F)F)c(OC)c2)C(=O)N2C[C@@H](C)C[C@H]2C(=O)NC2(CCC2)C(=O)N(C)[C@@H](C2CCCC2)C(=O)N(C)[C@H](C(=O)N(C)CCC)CC(=O)N1C [PP2028] | A (a compound having 10 or more and less than 20 is denoted as A) | B (a compound having 3 or more and less than 10 is denoted as B) | 17.5
CCCN(C)C(=O)[C@@H]1CC(=O)N(C)[C@@H](CC(C)C)C(=O)N[C@@H]([C@@H](C)CC)C(=O)N(C)CC(=O)N(C)[C@H]2C/C=C\CCN(C2=O)[C@@H](Cc2ccc(C(F)(F)F)cc2)C(=O)N(C)CC(=O)N[C@@H](CCc2cc(F)c(C(F)(F)F)c(F)c2)C(=O)N2C[C@H](OCC)C[C@H]2C(=O)NC2(COC2)C(=O)N(C)[C@@H](C2CCCC2)C(=O)N1C [PP1938] | AA (a compound having 20 or more is denoted as AA) | A (a compound having 10 or more and less than 20 is denoted as A) | 34.6
CC[C@H](C)[C@@H]1NC(=O)[C@H](CC(C)C)N(C)C(=O)C[C@@H](C(=O)N(CC)CC)N(C)C(=O)[C@H](C2CCCC2)N(C)C(=O)C2(CCC2)NC(=O)[C@@H]2C[C@@H](C)CN2C(=O)[C@H](CCc2ccc(C(F)(F)F)c(OC)c2)NC(=O)CN(C)C(=O)[C@H](Cc2ccc(C)cc2)N2CC/C=C\C[C@@H](C2=O)N(C)C(=O)CN(C)C1=O [PP1849] | A (a compound having 10 or more and less than 20 is denoted as A) | A (a compound having 10 or more and less than 20 is denoted as A) | 37.1
CCCN(C)C(=O)[C@@H]1CC(=O)N(C)[C@@H](COCC)C(=O)N[C@@H]([C@@H](C)CC)C(=O)N(C)CC(=O)N(C)[C@H]2C/C=C\CCN(C2=O)[C@@H](Cc2ccc(C(F)(F)F)cc2)C(=O)N(C)CC(=O)N[C@@H](CCc2ccc(C(F)(F)F)c(OC)c2)C(=O)N2C[C@@H](C)C[C@H]2C(=O)NC2(CCC2)C(=O)N(C)[C@@H](C2CCCC2)C(=O)N1C [PP2025] | A (a compound having 10 or more and less than 20 is denoted as A) | B (a compound having 3 or more and less than 10 is denoted as B) | 13.4
CCO[C@@H]1C[C@H]2C(=O)N(C)C3(CCC3)C(=O)N(C)[C@@H](C3CCCC3)C(=O)N(C)[C@H](C(=O)N(C)C)CC(=O)N(C)[C@@H](CC3CC3)C(=O)N[C@@H]([C@@H](C)CC)C(=O)N(C)CC(=O)N(C)[C@H]3C/C=C\CCN(C3=O)[C@@H](Cc3ccc(C)cc3)C(=O)N(C)CC(=O)N[C@@H](CCc3cc(F)c(C(F)(F)F)c(F)c3)C(=O)N2C1 [PP1795] | A (a compound having 10 or more and less than 20 is denoted as A) | B (a compound having 3 or more and less than 10 is denoted as B) | 3
CCCOC[C@H]1C(=O)N[C@@H]([C@@H](C)CC)C(=O)N(C)CC(=O)N(C)[C@H]2C/C=C\CCN(C2=O)[C@@H](Cc2ccc(C(F)(F)F)cc2)C(=O)N(C)CC(=O)N[C@@H](CCc2ccc(C(F)(F)F)c(OC)c2)C(=O)N2C[C@@H](C)C[C@H]2C(=O)NC2(CCC2)C(=O)N(C)[C@@H](C2CCCC2)C(=O)N(C)[C@H](C(=O)N(C)CC)CC(=O)N1C [PP2027] | A (a compound having 10 or more and less than 20 is denoted as A) | B (a compound having 3 or more and less than 10 is denoted as B) | 14
CCCN1C(=O)C[C@@H](C(=O)N(C)C)N(C)C(=O)[C@H](C2CCCC2)N(C)C(=O)C2(CCC2)NC(=O)[C@@H]2C[C@@H](OCC)CN2C(=O)[C@H](CCc2cc(F)c(C(F)(F)F)c(F)c2)NC(=O)CN(C)C(=O)[C@H](Cc2ccc(C(F)(F)F)cc2)N2CC/C=C\C[C@@H](C2=O)N(C)C(=O)CN(C)C(=O)[C@H]([C@@H](C)CC)NC(=O)[C@@H]1CC(C)C [PP1825] | A (a compound having 10 or more and less than 20 is denoted as A) | A (a compound having 10 or more and less than 20 is denoted as A) | 8
CCO[C@@H]1C[C@H]2C(=O)NC3(CCC3)C(=O)N(C)[C@@H](C3CCCC3)C(=O)N(C)[C@H](C(=O)N(C)CC)CC(=O)N(C)[C@@H](CC(F)(F)F)C(=O)N[C@@H]([C@@H](C)CC)C(=O)N(C)CC(=O)N(C)[C@H]3C/C=C\CCN(C3=O)[C@@H](Cc3ccc(C(F)(F)F)cc3)C(=O)N(C)CC(=O)N[C@@H](CCc3cc(F)c(C(F)(F)F)c(F)c3)C(=O)N2C1 [PP1701] | A (a compound having 10 or more and less than 20 is denoted as A) | A (a compound having 10 or more and less than 20 is denoted as A) | 3.7
CCO[C@@H]1C[C@H]2C(=O)NC3(CCC3)C(=O)N(C)[C@@H](C3CCCC3)C(=O)N(C)[C@H](C(=O)N(C)CC)CC(=O)N(C)[C@@H](C3CCC3)C(=O)N[C@@H]([C@@H](C)CC)C(=O)N(C)CC(=O)N(C)[C@H]3C/C=C\CCN(C3=O)[C@@H](Cc3ccc(C(F)(F)F)cc3)C(=O)N(C)CC(=O)N[C@@H](CCc3ccc(C(F)(F)F)c(OC)c3)C(=O)N2C1 [PP2022] | A (a compound having 10 or more and less than 20 is denoted as A) | A (a compound having 10 or more and less than 20 is denoted as A) | 2.7
CC[C@H](C)[C@@H]1NC(=O)[C@H](CC(C)C)N(C)C(=O)C[C@@H](C(=O)N(C)C)N(C)C(=O)[C@H](C2CCCC2)N(C)C(=O)C2(CCC2)NC(=O)[C@@H]2C[C@H](C)CN2C(=O)[C@H](CCc2ccc(C(F)(F)F)c(OC)c2)NC(=O)CN(C)C(=O)[C@H](Cc2ccc(C)cc2)N2CC/C=C\C[C@@H](C2=O)N(C)C(=O)CN(C)C1=O [PP1865] | A (a compound having 10 or more and less than 20 is denoted as A) | B (a compound having 3 or more and less than 10 is denoted as B) | 36
CCCN(C)C(=O)[C@@H]1CC(=O)N(C)[C@@H](C2CCC2)C(=O)N[C@@H]([C@@H](C)CC)C(=O)N(C)CC(=O)N(C)[C@H]2C/C=C\CCN(C2=O)[C@@H](Cc2ccc(C(F)(F)F)cc2)C(=O)N(C)CC(=O)N[C@@H](CCc2ccc(C(F)(F)F)c(OC)c2)C(=O)N2C[C@H](OCC)C[C@H]2C(=O)NC2(CCC2)C(=O)N(C)[C@@H](C2CCCC2)C(=O)N1C [PP2023] | A (a compound having 10 or more and less than 20 is denoted as A) | B (a compound having 3 or more and less than 10 is denoted as B) | 10.5
CC[C@H](C)[C@@H]1NC(=O)[C@H](CC)N(C)C(=O)C[C@@H](C(=O)N(C)C)N(C)C(=O)[C@H](C2CCCC2)N(C)C(=O)C2(CC(C)(C)C2)NC(=O)[C@@H]2C[C@@H](C)CN2C(=O)[C@H](CCc2ccc(C(F)(F)F)c(Cl)c2)NC(=O)CN(C)C(=O)[C@H](Cc2ccc(C)cc2)N2CC/C=C\C[C@@H](C2=O)N(C)C(=O)CN(C)C1=O [PP1846] | A (a compound having 10 or more and less than 20 is denoted as A) | B (a compound having 3 or more and less than 10 is denoted as B) | 9.8
CCCN(C)C(=O)[C@@H]1CC(=O)N(C)[C@@H](CC(F)F)C(=O)N[C@@H]([C@@H](C)CC)C(=O)N(C)CC(=O)N(C)[C@H]2C/C=C\CCN(C2=O)[C@@H](Cc2ccc(C(F)(F)F)cc2)C(=O)N(C)CC(=O)N[C@@H](CCc2cc(F)c(C(F)(F)F)c(F)c2)C(=O)N2C[C@@H](C)C[C@H]2C(=O)NC2(CCC2)C(=O)N(C)[C@@H](C2CCCC2)C(=O)N1C [PP2000] | A (a compound having 10 or more and less than 20 is denoted as A) | B (a compound having 3 or more and less than 10 is denoted as B) | 17.7
